Data from US5976875A, “Diacylglycerol kinase isoforms epsilon and zeta and methods of use thereof” (priority 1997, dated 1999).
Like-named read-outs stand apart in the source and are kept apart here.

How the values were obtained:
[1] = tested on: protein kinase M (PKM), catalytic fragment of mixed rat brain PKC isozymes; test: Phosphorylation of peptides by PKM (kinetics); assay type: biochemical; details: for Km: 10 minute reaction, 30° C., read-out: Km as substrate for PKM
Protocol: Phosphorylation of peptides and proteins--Peptides were phosphorylated by the purified catalytic fragment of mixed rat brain PKC isozymes (protein kinase M; PKM). In all cases involving kinetic measurements, the peptides were phosphorylated by PKM (1:120 dilution of frozen stock solution) at 30° C. All reactions were performed in the linear range of peptide phosphorylation, in an assay mixture containing 40 mM Hepes (pH 7.4), 0.25 mM EGTA, 12.5 mM MgCl2, 75 μM y-[^32 P]ATP, and various concentrations of peptides. In the peptide experiments, the reactions were stopped after 10 minutes by the addition of 1/5 vol of 5×SDS sample buffer, boiled for 5 minutes and then subjected to electrophoresis on 20% acrylamide gels. After the gels were dried, the phosphorylated peptides were localized by autoradiography, excised from the gel, and subjected to Cerenkov scintillation counting.

[2] = biological target: T1, DGK.zeta. (Homo sapiens, UniProt Q13574); test: DAG kinase assay, homogenates of DGK.zeta.-transfected COS-7 cells; assay type: biochemical; details: for nmol phosphatidic acid/mg/h (DAG substrate specificity of DGK.zeta.): each diacylglycerol used as substrate, Table I
T1 construct: The DGK.zeta. cDNA was expressed in pcDNA 1/AMP (Invitrogen) in the foward orientation; expressed in transfected cells; host or cells: COS-7
Protocol: (§1) COS-7 Transfection--The DGK.zeta. cDNA was expressed in pcDNA 1/AMP (Invitrogen) in the foward orientation. Each p35 dish containing COS-7 cells at 60-80% confluence was transfected with 1 μg of plasmid DNA and 5 μl of LipofectAMINE according to manufacturer specifications (Life Technologies Inc.). The cells were harvested by washing with ice-cold Hanks' balanced salt solution (Ca^2+ - and […] -free) and were scraped into resuspension buffer (20 mM Tris-HCl, pH 7.4, 0.25 M sucrose, 1 mM EDTA, 4 mM EGTA, 1 mM dithiothreitol, 1 mM pheylmethylsulfonyl fluoride, 20 μg/ml each leupeptin, pepstain, aprotinin, and soybean trypsin inhibitor) 48 h following transfection. All homogenates were frozen on dry ice and stored at -70° C. until assayed.
(§2) DAG Kinase Assay--Cell homogenates were sonicated twice with 5 watts for 5 at 4° C. The protein concentration of each cell homogenate was measured following trichloracetic acid precipitation utilizing the BCA protein assay reagent (Pierce). Each assay contained 50 mM MOPS, pH 7.2, 100 mM NaCl, 20 mM MgCl2, 1 mM EGTA, 1 mM dithiothreitol, 2 mM 1,2-dieleoyl-an-glycerol, 3.5 mM phosphatidylserine, 75 mM octyl-β-glucopyranoside, 500 μM [γ^32 ]ATP, and 0-20 μg of cell homogenate in a volume of 200 μl. For substrate specificity experiments, various diacylglycerol species were substituted for 1,2-dioleoyl-an-glycerol. The reactions were initiated by the addition of ATP (20-30 μCi/μmol), were incubated for 10 min. At 24° C., and were terminated by the addition of 200 μl of 1% perchloric acid. Then, to each tube, we added 1.0 ml of MeOH, 1.0 ml of […], 500 μl of 1% perchloric acid, and 50 μg of phosphatidic acid, vortexed them well, and centrifuged them for 10 min at 400×g. The remaining lower phase was dried under N2 and resuspended in 100 μl of 9:1 CHCl3 /MeOH. Fifty μl of each sample were counted directly by liquid acintillation spectrometry, and the remainder was applied to a 20×20 cm Silica 60A thin layer chromatography plate (Whatman). […] The region containing phosphatidic acid (as indicated by radiolabeled standards) and the remaining areas of each lane were scraped separately, and the radioactivity was estimated by liquid scintillation spectrometry. The amount of phosphatidic acid formed per reaction was calculated as [2(direct count)(PA cpm)(total lane cpm)]×[mole ATP/cpm]. R59959 was dissolved in dimethyl sulfoxide and added to relevant enzymatic reactions just prior to the addition of ATP.

[3] = biological target: T2, DGKε (Homo sapiens, UniProt P52429); test: octyl glucoside/PS mixed-micelle assay of DGK activity, homogenates of DGKε-transfected COS-7 cells; assay type: biochemical; details: for inhibition of DGKε activity: 100 μm inhibitor, homogenates from transfected cells
T2 construct: a PCR product of the DGKε cDNA lacking the 3'-untranslated region and part of the 5'-untranslated region was amplified; expressed in transfected cells; host or cells: COS-7
T2 sequence (P52429 1-567): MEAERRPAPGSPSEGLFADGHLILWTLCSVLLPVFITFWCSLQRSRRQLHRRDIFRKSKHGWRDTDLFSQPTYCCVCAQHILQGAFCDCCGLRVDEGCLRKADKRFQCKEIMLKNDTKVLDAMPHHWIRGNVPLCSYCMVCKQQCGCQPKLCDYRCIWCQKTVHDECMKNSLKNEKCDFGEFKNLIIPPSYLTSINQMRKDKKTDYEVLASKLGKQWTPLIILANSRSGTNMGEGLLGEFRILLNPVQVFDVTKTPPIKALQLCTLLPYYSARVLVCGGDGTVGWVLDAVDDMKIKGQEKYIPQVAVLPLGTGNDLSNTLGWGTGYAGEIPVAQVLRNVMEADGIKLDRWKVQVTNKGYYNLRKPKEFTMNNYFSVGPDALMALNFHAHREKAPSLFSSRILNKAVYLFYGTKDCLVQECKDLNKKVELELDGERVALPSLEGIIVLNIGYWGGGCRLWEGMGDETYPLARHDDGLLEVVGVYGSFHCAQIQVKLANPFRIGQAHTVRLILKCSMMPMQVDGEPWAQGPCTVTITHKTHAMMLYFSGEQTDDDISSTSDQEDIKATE
Protocol: COS-7 Transfection and Assay of DGK Activity--COS-7 transfection was carried out using LipofectAMINE reagent (Life Technologies, Inc.), and all steps were followed by the protocol provided by the manufacturer. After 2.5 days, the cells were harvested and lysed by sonication (twice with 5 watts for 5 s at 4° C.) in the lysis buffer (0.1 ml/35 mm well) containing 20 mm Tris-HCL, pH 7.4, 0.25 m sucrose, 1 mm EDTA, 4 mm EGTA, 1 mm dithiothreitol, 1 mm phenylmethylsulfonyl fluoride, a 20 μg/ml concentration of each: leupeptin, pepstatin, aprotinin, and soybean trypsin inhibitor. Kai, M., Sakane, F., Imai, S., Wada, I., and Kanoh, H. (1994) J. Biol. Chem. 269, 18492-18498. The protein concentration of the cell homogenate was determined with the BCA protein assay reagent (Pierce). In two experiments, the homogenate was separated into soluble and membrane-bound fractions by centrifugation at 100,000×g for 60 min. (4° C.). The pellet was resuspended in lysis buffer, and both fractions were assayed for DGK activity.
Since the full-length cDNA of DGKε could not be expressed in COS-7 cells, a PCR product of the DGKε cDNA lacking the 3'-untranslated region and part of the 5'-untranslated region was amplified and cloned into pcDNA/Neo (Invitrogen). The forward primer (SEQ ID NO: 10):
The octyl glucoside/PS mixed-micelle assay of DGK activity was performed as described. Walsh, J. P., Suen, R., Lemaitre, R. N., and Glomset, J. A. (1994) J. Biol. Chem. 269, 21155-21164. In brief, the assay mixture contained 50 mm MOPS, pH 7.2, 100 mm NaCl, 20 mm MgCl2, 1 mm EGTA, 1 mm dithoiothreitol, 2 mm discylglycerol, 3.5 mm phosphatidylserine, 75 mm octyl-β-glucopyranoside, 500 μm [γ-^32 P] ATP, and 20 μg of cellular protein in a volume of 200 μl. The reaction was initiated by the addition of [γ-^32 P] ATP (20-30 μCi/μmol) and processed for 10 min at 24° C. […] The amount of phosphatidic acid formed per reaction was calculated by dividing the radioactivity in phosphatidic acid by the specific radioactivity of the ATP in the reaction.

[4] = tested on: DGK.zeta.; test: DAG kinase assay, homogenates of DGK.zeta.-transfected COS-7 cells; assay type: biochemical, human
Protocol: as §1, §2

T1 sequence (Q13574 whole entry): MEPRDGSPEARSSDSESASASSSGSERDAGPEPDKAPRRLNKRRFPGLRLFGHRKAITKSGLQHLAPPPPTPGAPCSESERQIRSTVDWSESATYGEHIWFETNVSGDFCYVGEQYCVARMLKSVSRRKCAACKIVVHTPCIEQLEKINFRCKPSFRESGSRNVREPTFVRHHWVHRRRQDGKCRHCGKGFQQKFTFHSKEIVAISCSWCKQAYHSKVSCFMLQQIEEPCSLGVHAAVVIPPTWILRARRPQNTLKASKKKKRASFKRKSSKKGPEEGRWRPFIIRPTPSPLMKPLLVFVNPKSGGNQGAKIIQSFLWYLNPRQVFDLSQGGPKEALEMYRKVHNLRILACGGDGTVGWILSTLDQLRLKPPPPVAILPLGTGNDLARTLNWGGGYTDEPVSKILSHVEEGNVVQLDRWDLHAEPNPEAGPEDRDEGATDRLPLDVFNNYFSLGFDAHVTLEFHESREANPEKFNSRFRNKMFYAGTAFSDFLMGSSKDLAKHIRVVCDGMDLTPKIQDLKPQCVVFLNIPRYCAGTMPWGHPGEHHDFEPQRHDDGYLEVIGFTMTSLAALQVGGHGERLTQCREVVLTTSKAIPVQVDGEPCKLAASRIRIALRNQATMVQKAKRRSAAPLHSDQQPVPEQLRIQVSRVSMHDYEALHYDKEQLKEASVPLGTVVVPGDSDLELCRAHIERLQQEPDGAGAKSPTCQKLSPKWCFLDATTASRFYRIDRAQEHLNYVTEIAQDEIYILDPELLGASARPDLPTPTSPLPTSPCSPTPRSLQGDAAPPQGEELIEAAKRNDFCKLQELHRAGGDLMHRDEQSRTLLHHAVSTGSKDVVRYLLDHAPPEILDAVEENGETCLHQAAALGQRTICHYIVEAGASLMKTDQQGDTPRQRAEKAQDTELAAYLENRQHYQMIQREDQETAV

## KASKKKKRASFKRKSSKK [DGK peptide, 18 amino acid peptide corresponding to residues 256-273 of DGK.zeta]
[1]; listed as native peptide
  Km: ~0.5 µM
[1]
  Km: 0.5 µM
[1]; phosphorylation by PKM
  Hill constant: 0.7

## [Ca+2] [calcium]
[2]; 0.1-2 mm calcium added at start of reaction
  effect of excess calcium on DGK.zeta. activity: no increase in activity

## CCCCCCCC/C=C\CCCCCCCC(=O)OC[C@H](CO)OC(=O)CCCCCCC/C=C\CCCCCCCC [1,2-Dioleoyl-sn-glycerol]
[2]
  nmol phosphatidic acid/mg/h (DAG substrate specificity of DGK.zeta.): 1021 ± 9 nmol phosphatidic acid/mg/h

## O=c1c2ccccc2[nH]c(=S)n1CCN1CCC(=C(c2ccc(F)cc2)c2ccc(F)cc2)CC1 [R59949]
[3]
  inhibition of DGKε activity: ~41%
[2]; 100 μm R59949, read-out: DGK.zeta. activity in presence of inhibitor
  activity at 100 µM: 94%
[2]; summary statement
  DAG kinase activity of DGK.zeta.-transfected cells in presence of inhibitor: not altered

## CCCCCCCCCC(=O)OC[C@H](CO)OC(=O)CCCCCCCCC [1,2-Dicapryl-sn-glycerol]
[2]
  nmol phosphatidic acid/mg/h (DAG substrate specificity of DGK.zeta.): 1440 ± 42 nmol phosphatidic acid/mg/h

## CCCCCCCC/C=C\CCCCCCCC(=O)O[C@@H](CO)COC(=O)CCCCCCCCCCCCCCCCC [1-Stearoyl-2-oleoyl-sn-glycerol]
[2]
  nmol phosphatidic acid/mg/h (DAG substrate specificity of DGK.zeta.): 801 ± 13 nmol phosphatidic acid/mg/h

## Cc1nc2sccn2c(=O)c1CCN1CCC(=C(c2ccccc2)c2ccc(F)cc2)CC1 [R59022]
[3]
  inhibition of DGKε activity: approximately 11%

## CCCCC/C=C\C/C=C\C/C=C\C/C=C\CCCC(=O)O[C@@H](CO)COC(=O)CCCCCCCCCCCCCCCCC [1-Stearoyl-2-arachidonyl-sn-glycerol]
[2]
  nmol phosphatidic acid/mg/h (DAG substrate specificity of DGK.zeta.): 1106 ± 34 nmol phosphatidic acid/mg/h

## CCCCCCCC/C=C\CCCCCCCC(=O)OC[C@H](CO)OC(=O)CCCCCCCCCCCCCCC [1-Oleoyl-2-palmitoyl-sn-glycerol]
[2]
  nmol phosphatidic acid/mg/h (DAG substrate specificity of DGK.zeta.): 856 ± 35 nmol phosphatidic acid/mg/h

## DGK.zeta.: human diacylglycerol kinase zeta, 928-amino acid protein (SEQ ID NO: 4)
[2]; 1,2-dicapryl-sn-glycerol substrate, typical experiment, FIG. 21
  DGK activity: 7.5 nmol/mg/min
[2]; 1,2-dioleoyl-sn-glycerol substrate, FIG. 7
  increase in DGK activity compared to vector-transfected cells: 267 fold
[4]; native vs ankyrin repeat-deleted (FLAG-tagged) DGK.zeta.
  catalytic activity: 1764 nmol PA/mg/hr
[4]; native vs zinc finger deletion mutants, Table II
  DGK.zeta. activity: 243 nmol PA/mg/hr
[4]; relative to native DGK.zeta. = 100, Table II
  Relative activity: 100

## CCCCCCCC/C=C\CCCCCCCC(=O)OCC(O)COC(=O)CCCCCCC/C=C\CCCCCCCC [1,3-Dioleoyl-sn-glycerol]
[2]
  nmol phosphatidic acid/mg/h (DAG substrate specificity of DGK.zeta.): 110 ± 8 nmol phosphatidic acid/mg/h

## phosphatidylserine
[3]; additional 3.5 mm phosphatidylserine added to reaction mixture
  effect of increased phosphatidylserine concentration on DGKε activity: only slightly increased

## CCCCCCCC/C=C\CCCCCCCC(=O)O[C@@H](CO)COC(=O)CCCCCCCCCCCCCCC [1-Palmitoyl-2-oleoyl-sn-glycerol]
[2]
  nmol phosphatidic acid/mg/h (DAG substrate specificity of DGK.zeta.): 805 ± 8 nmol phosphatidic acid/mg/h
